Laboratory results taken from patent US20130053365A1, “DIHYDROPYRIDOPHTHALAZINONE INHIBITORS OF POLY(ADP-RIBOSE)POLYMERASE (PARP)” (BioMarin Pharmaceutical, Inc., priority 2011, published 2013).
“And” between values parts separate entries of the source, which are not always exact repeats. Equal values may be shown once.

Experiments:
PARP-1 [1] = molecular target: T1, PARP-1 (Homo sapiens, UniProt P09874); assay: Universal Chemiluminescent PARP Assay (Trevigen kit), inhibition of human PARP 1 enzyme; format: biochemical; parameters: purchased Trevigen 4676-096-K; conditions: recombinant human PARP 1 enzyme, read-out: PARP-inhibitory activity
Description: Inhibitory effects of test compounds against human PARP 1 enzyme are assessed using Trevigen's Universal Chemiluminescent PARP Assay Kit (Trevigen CAT #4676-096-K) following the manufacturer's recommended protocol.
Immediately prior to performing the assay, the following reagents are prepared: A) 20× PARP Assay Buffer is diluted to 1× with dH2O; B) 10× PARP Cocktail, which contains a mixture of NAD and biotinylated NAD, is diluted by the addition of 10× Activated DNA and 1× PARP Assay Buffer. Both the PARP Cocktail and Activated DNA are 1× after the dilution; C) all test compounds are initially dissolved in DMSO, and subsequently serial diluted with 1× PARP Assay Buffer; D) recombinant human PARP 1 enzyme is diluted with 1× PARP Assay Buffer to generate 0.5 unit/15 μL; E) 10× Strep-Diluent is diluted to 1× with 1× PBS/0.1% Triton X-100; F) Just before use, Strep-HRP is diluted 500-fold with 1× Strep-Diluent.
The chemiluminescent assays for PARP activity is performed in white 96-well plates that are pre-coated with histones. […]
The reactions are allowed to proceed for 1 hour at room temperature. […] The light output is immediately determined in a plate reader (EnVision, by Perkin Elmer) set up for measuring chemiluminescence.
The % enzyme activity for each compound is then calculated using the following equation: […]
Target sequence in this assay (P09874 whole entry): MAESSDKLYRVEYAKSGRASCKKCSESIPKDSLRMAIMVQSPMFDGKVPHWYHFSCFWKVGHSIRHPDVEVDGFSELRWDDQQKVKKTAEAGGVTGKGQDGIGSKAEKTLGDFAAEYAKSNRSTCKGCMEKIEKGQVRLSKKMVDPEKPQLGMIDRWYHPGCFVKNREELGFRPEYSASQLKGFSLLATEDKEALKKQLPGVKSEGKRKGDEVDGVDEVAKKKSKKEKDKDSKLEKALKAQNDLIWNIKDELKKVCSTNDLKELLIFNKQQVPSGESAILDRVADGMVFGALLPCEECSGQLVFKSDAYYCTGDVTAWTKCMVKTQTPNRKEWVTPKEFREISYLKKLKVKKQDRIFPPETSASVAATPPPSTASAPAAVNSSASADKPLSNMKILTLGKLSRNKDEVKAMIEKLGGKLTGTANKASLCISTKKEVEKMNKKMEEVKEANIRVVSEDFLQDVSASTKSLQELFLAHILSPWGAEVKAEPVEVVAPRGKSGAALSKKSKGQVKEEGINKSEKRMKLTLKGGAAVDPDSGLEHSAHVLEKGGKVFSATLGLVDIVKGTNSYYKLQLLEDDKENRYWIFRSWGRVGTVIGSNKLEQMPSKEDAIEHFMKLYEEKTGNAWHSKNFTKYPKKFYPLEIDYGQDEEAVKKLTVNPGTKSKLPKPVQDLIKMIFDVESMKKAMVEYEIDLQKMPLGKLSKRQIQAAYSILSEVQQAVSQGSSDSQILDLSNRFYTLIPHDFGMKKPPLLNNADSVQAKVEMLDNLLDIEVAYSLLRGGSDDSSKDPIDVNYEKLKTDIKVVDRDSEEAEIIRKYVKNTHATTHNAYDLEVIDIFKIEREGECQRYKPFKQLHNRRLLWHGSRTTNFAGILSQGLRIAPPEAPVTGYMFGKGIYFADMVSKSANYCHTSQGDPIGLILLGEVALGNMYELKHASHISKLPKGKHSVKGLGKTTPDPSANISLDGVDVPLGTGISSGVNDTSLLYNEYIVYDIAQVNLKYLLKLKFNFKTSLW

CAPAN-1 cells = CAPAN-1 cells in DMEM with FCS (20% v/v), glutamine and antibiotics; cited from earlier work
PARP-1 [2] = molecular target: T1, PARP-1; conditions: literature value, Farmer et al., Nature 2005; read-out: Ki (PARP-1 inhibitor); cited from earlier work
Target sequence in this assay (P09874 whole entry, species assumed): as the sequence (P09874 whole entry) above

[3] = system: BRCA2-deficient cell line V-C8; conditions: BRCA2-deficient V-C8 compared with BRCA2 wild type control; cited from earlier work

Compound: Cn1ncnc1C1c2n[nH]c(=O)c3cc(F)cc(c23)NCC1c1ccc(F)cc1 (stereo not drawn) [Compound 40, 5-fluoro-9-(4-fluorophenyl)-10-(1-methyl-1H-1,2,4-triazol-5-yl)-7,8,9,10-tetrahydroazepino[4,3,2-de]phthalazin-3(2H)-one]
- IC50 (PARP-1 [1]): < 800 nM and 250 to 300 nM

Compound: O=C(c1cc(Cc2n[nH]c(=O)c3ccccc23)ccc1F)N1CCN(C(=O)C2CC2)CC1 [AZD2281]
- sensitivity to PARP inhibition in clonogenic survival assay (CAPAN-1 cells): showing sensitivity to PARP inhibition

Compound: CN(C)Cc1ccc(-c2nc3cccc4c3n2CCNC4=O)cc1 [AG14361]
- Ki (PARP-1 [2]): 5 nM
- sensitivity in clonogenic survival assay [3]: exhibited sensitivity

Compound: Cc1nc2c(O)cccc2c(=O)[nH]1 [NU1025]
- Ki (PARP-1 [2]): 50 nM
- sensitivity in clonogenic survival assay [3]: exhibited sensitivity
